In brackets after ≈: the same amount, converted by molar mass. Activity calls are given as the source filed them. The rule behind the calls is not given here.
What was measured:
Pseudomonas aeruginosa [1] = test: Eradication of biofilm formation in multi-drug resistant Pseudomonas aeruginosa CCARM 2095 at 32 uM incubated for 12 hrs by CLSM analysis relative to control; type: functional
Pseudomonas aeruginosa [2] = test: Inhibition of biofilm formation in multi-drug resistant Pseudomonas aeruginosa CCARM 2095 at 4 to 8 uM by crystal violet staining based analysis relative to control; type: functional; conditions: dose 4-8 µM
Staphylococcus aureus [3] = test: Antibacterial activity against Staphylococcus aureus KCTC 1621 incubated for 24 hrs by CLSI based broth microdilution method; type: functional
Acinetobacter baumannii [4] = test: Antibacterial activity against multidrug-resistant Acinetobacter baumannii 329-97 incubated for 24 hrs by CLSI based broth microdilution method; type: functional
Pseudomonas aeruginosa [5] = test: Antibacterial activity against multidrug-resistant Pseudomonas aeruginosa CCARM 2095 incubated for 24 hrs by CLSI based broth microdilution method; type: functional
[6] = Effect on secondary structure of drug in SDS assessed as fold increase in formation of alpha-helical conformation at 150 uM by CD analysis relative to HVF18; type: physicochemical
Staphylococcus aureus [7] = test: Antibacterial activity against methicillin-resistant Staphylococcus aureus CCARM 3090 incubated for 24 hrs by CLSI based broth microdilution method; type: functional
Pseudomonas aeruginosa [8] = test: Antibacterial activity against Pseudomonas aeruginosa KCTC 1637 incubated for 24 hrs by CLSI based broth microdilution method; type: functional
Staphylococcus aureus [9] = test: Antibacterial activity against methicillin-resistant Staphylococcus aureus CCARM 3089 incubated for 24 hrs by CLSI based broth microdilution method; type: functional
[10] = Effect on secondary structure of drug in TFE assessed as fold increase in formation of alpha-helical conformation at 150 uM by CD analysis relative to HVF18; type: physicochemical
[11] = Hemolytic activity in sheep RBC at 256 uM incubated for 1 hr by absorbance based assay; type: toxicity, cell-based, Ovis aries, Erythrocyte; conditions: sheep red blood cells, read-out: Activity
Acinetobacter baumannii [12] = test: Antibacterial activity against carbapenem-resistant Acinetobacter baumannii NMS 1707 incubated for 24 hrs by CLSI based broth microdilution method; type: functional
Acinetobacter baumannii [13] = test: Antibacterial activity against multidrug-resistant Acinetobacter baumannii 329-53 incubated for 24 hrs by CLSI based broth microdilution method; type: functional
Staphylococcus aureus [14] = test: Antibacterial activity against methicillin-resistant Staphylococcus aureus CCARM 3095 incubated for 24 hrs by CLSI based broth microdilution method; type: functional
[15] = Hemolytic activity in sheep RBC incubated for 1 hr by absorbance based assay; type: toxicity, cell-based, Ovis aries; conditions: erythrocyte
[16] = Effect on secondary structure of drug in PBS assessed as formation of random coil structure at 150 uM by CD analysis; type: physicochemical; conditions: buffer
Bacillus subtilis = test: Antibacterial activity against Bacillus subtilis KCTC 3068 incubated for 24 hrs by CLSI based broth microdilution method; type: functional
Salmonella typhimurium = test: Antibacterial activity against Salmonella typhimurium KCTC 1926 incubated for 24 hrs by CLSI based broth microdilution method; type: functional, Salmonella enterica subsp. enterica serovar Typhimurium; conditions: Salmonella enterica
[17] = system: Staphylococcus epidermidis; test: Antibacterial activity against Staphylococcus epidermidis KCTC 1917 incubated for 24 hrs by CLSI based broth microdilution method; type: functional
[18] = Effect on secondary structure of drug in LPS assessed as fold increase in formation of alpha-helical conformation at 150 uM by CD analysis relative to HVF18; type: physicochemical
[19] = Hydrophobicity of compound assessed as retention time by RP-HPLC analysis; type: physicochemical
Escherichia coli [20] = test: Antibacterial activity against Escherichia coli KCTC 1682 incubated for 24 hrs by CLSI based broth microdilution method; type: functional
Pseudomonas aeruginosa [21] = test: Antibacterial activity against multidrug-resistant Pseudomonas aeruginosa CCARM 2109 incubated for 24 hrs by CLSI based broth microdilution method; type: functional
Acinetobacter baumannii [22] = test: Antibacterial activity against carbapenem-resistant Acinetobacter baumannii NMS 1915 incubated for 24 hrs by CLSI based broth microdilution method; type: functional
Acinetobacter baumannii [23] = test: Antibacterial activity against carbapenem-resistant Acinetobacter baumannii CCARM 12005 incubated for 24 hrs by CLSI based broth microdilution method; type: functional
Enterococcus faecium = test: Antibacterial activity against vancomycin-resistant Enterococcus faecium ATCC 51559 incubated for 24 hrs by CLSI based broth microdilution method; type: functional
Acinetobacter baumannii [24] = test: Antibacterial activity against carbapenem-resistant Acinetobacter baumannii 1707 incubated for 24 hrs by CLSI based broth microdilution method; type: functional, organism-based
Acinetobacter baumannii [25] = test: Antibacterial activity against carbapenem-resistant Acinetobacter baumannii 1915 incubated for 24 hrs by CLSI based broth microdilution method; type: functional, organism-based
Escherichia coli [26] = test: Induction of resistance development in Escherichia coli KCTC 1682 assessed as fold increase in MIC at 0.5 times MIC measured after 30 passages relative to control; type: functional
Staphylococcus aureus [27] = test: Antibacterial activity against methicillin-resistant Staphylococcus aureus CCARM 3089 incubated for 24 hrs by broth microdilution method; type: functional
Pseudomonas aeruginosa [28] = test: Antibacterial activity against multi-drug resistant Pseudomonas aeruginosa CCARM 2095 incubated for 24 hrs by broth microdilution method; type: functional

CC[C@H](C)[C@H](NC(=O)[C@H](CCCCN)NC(=O)[C@H](CCC(=O)O)NC(=O)[C@H](CCCCN)NC(=O)[C@H](CO)NC(=O)[C@H](CCCCN)NC(=O)[C@H](CCCNC(=N)N)NC(=O)[C@H](Cc1ccccc1)NC(=O)[C@H](Cc1ccccc1)NC(=O)[C@H](CC(=O)O)NC(=O)CNC(=O)[C@H](CC(C)C)NC(=O)[C@@H](N)CC(C)C)C(=O)NCC(=O)N[C@@H](CCCCN)C(=O)N[C@@H](CCC(=O)O)C(=O)N[C@@H](Cc1ccccc1)C(=O)N[C@@H](CCCCN)C(=O)N[C@@H](CCCNC(=N)N)C(=O)N[C@H](C(=O)N[C@H](C(=O)N[C@@H](CCC(N)=O)C(=O)N[C@@H](CCCNC(=N)N)C(=O)N[C@H](C(=O)N[C@@H](CCCCN)C(=O)N[C@@H](CC(=O)O)C(=O)N[C@@H](Cc1ccccc1)C(=O)N[C@@H](CC(C)C)C(=O)N[C@@H](CCCNC(=N)N)C(=O)N[C@@H](CC(N)=O)C(=O)N[C@@H](CC(C)C)C(=O)N[C@H](C(=O)N1CCC[C@H]1C(=O)N[C@@H](CCCNC(=N)N)C(=O)N[C@H](C(=O)N[C@@H](CCC(=O)O)C(=O)N[C@@H](CO)C(=O)O)[C@@H](C)O)C(C)C)[C@@H](C)CC)C(C)C)[C@@H](C)CC [CATHELICIDIN]
Activity (Pseudomonas aeruginosa [1]): >50%
inhibition (INH) (Pseudomonas aeruginosa [2]): >50%

H-GVFRLKKWIQKVIKQWGK-NH2
MIC (Staphylococcus aureus [3]): 8 µM
MIC (Acinetobacter baumannii [4]): 1 µM
MIC (Pseudomonas aeruginosa [5]): 4 µM
fold change (FC) [6]: ~ 5
MIC (Staphylococcus aureus [7]): 8 µM
MIC (Pseudomonas aeruginosa [8]): 8 µM
MIC (Staphylococcus aureus [9]): 8 µM
fold change (FC) [10]: ~ 5
hemolysis at 1 h, 256 µM [11]: 12.2%
MIC (Acinetobacter baumannii [12]): 2 µM
MIC (Acinetobacter baumannii [13]): 8 µM
MIC (Staphylococcus aureus [14]): 8 µM
HC10 [15]: 212 µM
Activity [16]: Active
MIC (Bacillus subtilis): 4 µM
MIC (Salmonella typhimurium): 4 µM
MIC [17]: 4 µM
fold change (FC) [18]: ~ 5
Retention_time [19]: 25.16 min
MIC (Escherichia coli [20]): 8 µM
MIC (Pseudomonas aeruginosa [21]): 16 µM
MIC (Acinetobacter baumannii [22]): 2 µM
MIC (Acinetobacter baumannii [23]): 4 µM
MIC (Enterococcus faecium): 8 µM

C[C@@H](O)[C@H]1C(=O)N2C(C(=O)O)=C(SCCNC=N)C[C@H]12
Activity (Acinetobacter baumannii [24]): inactive
Activity (Acinetobacter baumannii [25]): inactive

O=C(O)c1cn(C2CC2)c2cc(N3CCNCC3)c(F)cc2c1=O [CIPROFLOXACIN]
fold change (FC) (Escherichia coli [26]): 8192
MIC (Staphylococcus aureus [27]): 1020 µM (≈ 339 µg/mL)
MIC (Pseudomonas aeruginosa [28]): 1020 µM (≈ 339 µg/mL)

CN(C)[C@@H]1C(O)=C(C(N)=O)C(=O)[C@@]2(O)C(O)=C3C(=O)c4c(O)cccc4[C@@](C)(O)[C@H]3C[C@@H]12 [TETRACYCLINE]
fold change (FC) (Escherichia coli [26]): 256

H-GVFRLKKWIRKVIRRWGR-NH2
MIC (Staphylococcus aureus [3]): 8 µM
MIC (Acinetobacter baumannii [4]): 2 µM
MIC (Pseudomonas aeruginosa [5]): 2 µM
fold change (FC) [6]: ~ 5
MIC (Staphylococcus aureus [7]): 4 µM
MIC (Pseudomonas aeruginosa [8]): 8 µM
MIC (Staphylococcus aureus [9]): 4 µM
fold change (FC) [10]: ~ 5
hemolysis at 1 h, 256 µM [11]: 20.4%
MIC (Acinetobacter baumannii [12]): 8 µM
MIC (Acinetobacter baumannii [13]): 8 µM
MIC (Staphylococcus aureus [14]): 8 µM
HC10 [15]: 116 µM
Activity [16]: Active
MIC (Bacillus subtilis): 4 µM
MIC (Salmonella typhimurium): 4 µM
MIC [17]: 8 µM
fold change (FC) [18]: ~ 5
Retention_time [19]: 22.99 min
MIC (Escherichia coli [20]): 16 µM
MIC (Pseudomonas aeruginosa [21]): 16 µM
MIC (Acinetobacter baumannii [22]): 4 µM
MIC (Acinetobacter baumannii [23]): 8 µM
MIC (Enterococcus faecium): 4 µM
